Experimental data as given in the NIST ThermoML archive (doi:10.1021/acs.jced.5b01057).

Columns and labels:
[1] = Crystal; visual observation
[2] = mn = molality of the nth substance listed, in mol/kg; conditions: for surface tension liquid-gas: Pendant drop shape; for electrical conductivity: 100 kPa, Liquid, Alternating current cell with electrodes

CCCCCCCCCCCCNC1O[C@H](CO)[C@@H](O[C@@H]2O[C@H](CO)[C@H](O)[C@H](O)[C@H]2O)[C@H](O)[C@H]1O (some centres undefined) [N-dodecyllactosylamine]
Conditions	Triple point temperature [K]
[1]	398.65

CCCCCCCCCCCC[NH2+]C1O[C@H](CO)[C@@H](O[C@@H]2O[C@H](CO)[C@H](O)[C@H](O)[C@H]2O)[C@H](O)[C@H]1O.CCCCCCCCCCCC[NH2+]C1O[C@H](CO)[C@@H](O[C@@H]2O[C@H](CO)[C@H](O)[C@H](O)[C@H]2O)[C@H](O)[C@H]1O.O=C([O-])CCCCC(=O)[O-] (some centres undefined) [N-dodecyllactosylammonium hexanedioate] + O
[2]
Conditions	electrical conductivity [S/m]	surface tension liquid-gas [mN/m]
298.15 K, m1 = 0.0005	–	65.42
298.15 K, m1 = 0.001	–	57.54
298.15 K, m1 = 0.0015	–	52.44
298.15 K, m1 = 0.00159	0.00604	–
298.15 K, m1 = 0.002	–	48.72
298.15 K, m1 = 0.0025	–	46.11
298.15 K, m1 = 0.003	–	43.65
298.15 K, m1 = 0.00317	0.0113	–
298.15 K, m1 = 0.00396	0.0137	–
298.15 K, m1 = 0.004	–	39.6
298.15 K, m1 = 0.00474	0.0159	–
298.15 K, m1 = 0.005	–	36.39
298.15 K, m1 = 0.00552	0.0182	–
298.15 K, m1 = 0.006	–	34.24
298.15 K, m1 = 0.0063	0.0212	–
298.15 K, m1 = 0.007	–	33.1
298.15 K, m1 = 0.00707	0.023	–
323.15 K, m1 = 0.0004	–	62.97
323.15 K, m1 = 0.0006	–	58.09
323.15 K, m1 = 0.001	–	52.58
323.15 K, m1 = 0.0014	–	47.88
323.15 K, m1 = 0.00159	0.00898	–
323.15 K, m1 = 0.002	–	43.86
323.15 K, m1 = 0.0024	–	41.18
323.15 K, m1 = 0.003	–	38.37
323.15 K, m1 = 0.00317	0.0165	–
323.15 K, m1 = 0.004	–	35.16
323.15 K, m1 = 0.00474	0.0258	–
323.15 K, m1 = 0.005	–	32.73
323.15 K, m1 = 0.0063	0.0334	–

CCCCCC(=O)[O-].CCCCCCCCCCCC[NH2+]C1O[C@H](CO)[C@@H](O[C@@H]2O[C@H](CO)[C@H](O)[C@H](O)[C@H]2O)[C@H](O)[C@H]1O (some centres undefined) [N-dodecyllactosylammonium hexanoate] + O
[2], 323.15 K
Conditions	electrical conductivity [S/m]	surface tension liquid-gas [mN/m]
m1 = 0.4	0.001851	58.74
m1 = 0.6	–	52.11
m1 = 0.79	0.00335	–
m1 = 0.8	–	48.69
m1 = 1	–	45.57
m1 = 1.19	0.0048	–
m1 = 1.57	0.00609	–
m1 = 1.6	–	37.41
m1 = 1.96	0.00734	–
m1 = 2	–	34.64
m1 = 2.34	0.00864	–
m1 = 2.4	–	32.22
m1 = 2.72	0.00986	–
m1 = 3	–	30.32
m1 = 3.1	0.01083	–

CCCCCCCCCCCC[NH2+]C1O[C@H](CO)[C@@H](O[C@@H]2O[C@H](CO)[C@H](O)[C@H](O)[C@H]2O)[C@H](O)[C@H]1O.CCCCCCCCCCCC[NH2+]C1O[C@H](CO)[C@@H](O[C@@H]2O[C@H](CO)[C@H](O)[C@H](O)[C@H]2O)[C@H](O)[C@H]1O.O=C([O-])CC(=O)[O-] (some centres undefined) [N-dodecyllactosylammonium propanedioate] + O
[2]
Conditions	electrical conductivity [S/m]	surface tension liquid-gas [mN/m]
298.15 K, m1 = 0.0005	–	68.12
298.15 K, m1 = 0.001	–	61.14
298.15 K, m1 = 0.0015	–	55.99
298.15 K, m1 = 0.00159	0.00597	–
298.15 K, m1 = 0.002	–	51.91
298.15 K, m1 = 0.0025	–	47.5
298.15 K, m1 = 0.003	–	44.9
298.15 K, m1 = 0.00317	0.0115	–
298.15 K, m1 = 0.004	–	40.37
298.15 K, m1 = 0.00474	0.0168	–
298.15 K, m1 = 0.005	–	35.39
298.15 K, m1 = 0.00552	0.0194	–
298.15 K, m1 = 0.006	–	32.88
298.15 K, m1 = 0.0063	0.0227	–
298.15 K, m1 = 0.007	–	30.63
298.15 K, m1 = 0.00707	0.0251	–
298.15 K, m1 = 0.00784	0.0271	–
298.15 K, m1 = 0.008	–	28.97
298.15 K, m1 = 0.00861	0.0288	–
323.15 K, m1 = 0.0004	–	65.73
323.15 K, m1 = 0.0006	–	62.69
323.15 K, m1 = 0.0008	–	59.26
323.15 K, m1 = 0.001	–	56.85
323.15 K, m1 = 0.0014	–	52.69
323.15 K, m1 = 0.00159	0.00958	–
323.15 K, m1 = 0.002	–	47.4
323.15 K, m1 = 0.0024	–	44.7
323.15 K, m1 = 0.003	–	41.32
323.15 K, m1 = 0.00317	0.0164	–
323.15 K, m1 = 0.004	–	37.19
323.15 K, m1 = 0.00474	0.0257	–
323.15 K, m1 = 0.005	–	33.3
323.15 K, m1 = 0.006	–	30.53
323.15 K, m1 = 0.0063	0.0329	–
323.15 K, m1 = 0.007	–	28.43
323.15 K, m1 = 0.00784	0.0387	–
323.15 K, m1 = 0.008	–	26.79

CCC(=O)[O-].CCCCCCCCCCCC[NH2+]C1O[C@H](CO)[C@@H](O[C@@H]2O[C@H](CO)[C@H](O)[C@H](O)[C@H]2O)[C@H](O)[C@H]1O (some centres undefined) [N-dodecyllactosylammonium propanoate] + O
[2], 323.15 K
Conditions	electrical conductivity [S/m]	surface tension liquid-gas [mN/m]
m1 = 0.2	0.001042	67.63
m1 = 0.3	–	63.03
m1 = 0.4	0.001921	58.77
m1 = 0.5	–	53.31
m1 = 0.6	0.00272	50.73
m1 = 0.7	–	45.91
m1 = 0.79	0.00355	–
m1 = 0.8	–	42.76
m1 = 0.9	–	39.81
m1 = 0.99	0.00435	–
m1 = 1	–	37.73
m1 = 1.1	–	35.61
m1 = 1.19	0.00512	–
m1 = 1.2	–	34.86

O [water] + CCC(=O)[O-].CCCCCCCCCCCC[NH2+]C1O[C@H](CO)[C@@H](O[C@@H]2O[C@H](CO)[C@H](O)[C@H](O)[C@H]2O)[C@H](O)[C@H]1O
[2], 323.15 K, m2 = 0
Conditions	electrical conductivity [S/m]	surface tension liquid-gas [mN/m]
–	0.0001534	68.57

O [water] + CCCCCC(=O)[O-].CCCCCCCCCCCC[NH2+]C1O[C@H](CO)[C@@H](O[C@@H]2O[C@H](CO)[C@H](O)[C@H](O)[C@H]2O)[C@H](O)[C@H]1O
[2], 323.15 K, m2 = 0
Conditions	electrical conductivity [S/m]	surface tension liquid-gas [mN/m]
–	0.000255	68.72

O [water] + CCCCCCCCCCCC[NH2+]C1O[C@H](CO)[C@@H](O[C@@H]2O[C@H](CO)[C@H](O)[C@H](O)[C@H]2O)[C@H](O)[C@H]1O.CCCCCCCCCCCC[NH2+]C1O[C@H](CO)[C@@H](O[C@@H]2O[C@H](CO)[C@H](O)[C@H](O)[C@H]2O)[C@H](O)[C@H]1O.O=C([O-])CC(=O)[O-]
[2], m2 = 0
Conditions	surface tension liquid-gas [mN/m]
298.15 K	71.76
323.15 K	68.05

O [water] + CCCCCCCCCCCC[NH2+]C1O[C@H](CO)[C@@H](O[C@@H]2O[C@H](CO)[C@H](O)[C@H](O)[C@H]2O)[C@H](O)[C@H]1O.CCCCCCCCCCCC[NH2+]C1O[C@H](CO)[C@@H](O[C@@H]2O[C@H](CO)[C@H](O)[C@H](O)[C@H]2O)[C@H](O)[C@H]1O.O=C([O-])CCCCC(=O)[O-]
[2], m2 = 0
Conditions	surface tension liquid-gas [mN/m]
298.15 K	72.71
323.15 K	68.94
